Results taken from ChEMBL document CHEMBL5120836, “Discovery of novel 7,8-dihydropteridine-6(5H)-one-based DNA-PK inhibitors as potential anticancer agents via scaffold hopping strategy” (Eur J Med Chem, 2022).
Activity calls are given as the source filed them. No cut-off for these calls is given here.

Columns and labels:
HCT-116 [1] = assay: Induction of apoptosis in human HCT-116 cells assessed as viable cells at 1 uM incubated for 24 hrs by AnnexinV-FITC/PI staining based flow cytometry (reference value: 93.9%); type: functional; conditions: read-out: Activity
MDA-MB-231 [2] = assay: Synergistic antiproliferative activity against human MDA-MB-231 cells assessed as inhibition of cell growth in presence of 100 nM doxorubicin by MTT assay; type: functional, cell-based
MCF7 [3] = assay: Synergistic antiproliferative activity against human MCF7 cells assessed as combination index at 6.25 uM in presence of 0.1 uM doxorubicin by MTT assay; type: functional
HCT-116 [4] = assay: Induction of apoptosis in human HCT-116 cells assessed as early apoptotic cells at 1 uM incubated for 24 hrs by AnnexinV-FITC/PI staining based flow cytometry (reference value: 3.04%); type: functional
[5] = Toxicity in BALB/c nude mouse xenografted with human HL-60 cells assessed as serum RBC content at 100 mg/kg, po qd for 16 days (reference value: 10.375X10^12/L); type: organism-based, Erythrocyte; conditions: in vivo, 384 h, time 16 day
HL-60 [6] = assay: Synergistic antiproliferative activity against human HL-60 cells assessed as combination index at 1 uM in presence of 0.1 uM doxorubicin by MTT assay; type: functional
HCT-116 [7] = assay: Antiproliferative activity against human HCT-116 cells assessed as inhibition of cell growth incubated for 48 hrs in presence of 100 nM doxorubicin by MTT assay; type: functional, cell-based; conditions: HCT-116, 48 h
[8] = Toxicity in BALB/c nude mouse xenografted with human HL-60 cells assessed as effect on body weight at 100 mg/kg, po qd for 16 days; type: organism-based; conditions: in vivo, 384 h, time 16 day
HL-60 [9] = assay: Synergistic antiproliferative activity against human HL-60 cells assessed as combination index at 0.5 uM in presence of 0.1 uM doxorubicin by MTT assay; type: functional
[10] = biological target: T1, Phosphatidylinositol 4,5-bisphosphate 3-kinase catalytic subunit delta isoform (Homo sapiens, UniProt O00329); assay: Inhibition of human PI3Kdelta by ADP-Glo assay; type: toxicity
T1 sequence (O00329 whole entry): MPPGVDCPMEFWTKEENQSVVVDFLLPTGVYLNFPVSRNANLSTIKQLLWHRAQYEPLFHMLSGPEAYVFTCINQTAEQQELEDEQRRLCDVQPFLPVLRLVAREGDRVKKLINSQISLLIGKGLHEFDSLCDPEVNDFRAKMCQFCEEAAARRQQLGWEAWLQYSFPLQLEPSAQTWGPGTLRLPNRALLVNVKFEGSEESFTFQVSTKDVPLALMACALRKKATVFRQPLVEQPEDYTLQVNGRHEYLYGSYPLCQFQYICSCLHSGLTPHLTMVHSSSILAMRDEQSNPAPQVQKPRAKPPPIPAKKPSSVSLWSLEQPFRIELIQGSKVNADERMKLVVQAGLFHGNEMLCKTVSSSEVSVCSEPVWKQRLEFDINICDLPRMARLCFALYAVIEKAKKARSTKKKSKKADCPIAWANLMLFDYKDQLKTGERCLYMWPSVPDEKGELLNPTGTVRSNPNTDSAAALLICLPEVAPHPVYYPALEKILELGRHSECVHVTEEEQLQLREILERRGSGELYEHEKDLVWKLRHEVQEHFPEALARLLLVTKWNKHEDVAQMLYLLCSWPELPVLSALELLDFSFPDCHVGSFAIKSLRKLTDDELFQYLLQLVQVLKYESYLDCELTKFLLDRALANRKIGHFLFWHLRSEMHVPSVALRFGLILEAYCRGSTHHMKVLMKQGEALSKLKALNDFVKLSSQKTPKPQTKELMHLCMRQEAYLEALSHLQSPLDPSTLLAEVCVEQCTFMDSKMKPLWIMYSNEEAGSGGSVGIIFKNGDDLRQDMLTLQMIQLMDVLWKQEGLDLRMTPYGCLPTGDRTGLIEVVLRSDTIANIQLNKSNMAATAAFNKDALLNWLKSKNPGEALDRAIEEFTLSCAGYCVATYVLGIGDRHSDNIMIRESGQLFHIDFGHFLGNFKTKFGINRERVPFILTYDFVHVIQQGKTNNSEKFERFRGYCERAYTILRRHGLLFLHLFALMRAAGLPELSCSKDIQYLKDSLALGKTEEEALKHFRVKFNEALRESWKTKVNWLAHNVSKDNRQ

HCT-116 [11] = assay: Induction of cell cycle arrest in human HCT-116 cells assessed as increase in accumulation of cells at […] at 1 uM incubated for 24 hrs in presence of 100 nM doxorubicin by PI staining based flow cytometry; type: functional
HCT-116 [12] = assay: Antiproliferative activity against human HCT-116 cells assessed as inhibition of cell growth incubated for 48 hrs by MTT assay; type: functional, cell-based; conditions: HCT-116, 48 h
[13] = Plasma protein binding in human assessed as free fraction; type: ADME, cell-free
MCF7 [14] = assay: Synergistic antiproliferative activity against human MCF7 cells assessed as combination index at 25 uM in presence of 0.1 uM doxorubicin by MTT assay; type: functional
[15] = Toxicity in BALB/c nude mouse xenografted with human HL-60 cells assessed as heart morphological alterations at 100 mg/kg, po qd for 16 days by Hematoxylin and Eosin staining based analysis; type: organism-based; conditions: in vivo, 384 h, time 16 day
MDA-MB-231 [16] = assay: Synergistic antiproliferative activity against human MDA-MB-231 cells assessed as combination index at 50 uM in presence of 0.1 uM doxorubicin by MTT assay; type: functional
HCT-116 [17] = assay: Disruption of mitochondrial function in human HCT-116 cells assessed as decrease in mitochondrial membrane potential by measuring proportion of cells with green fluorescence at 1 uM incubated for 24 hrs by JC-1 staining based flow cytometry (reference value: 0.566%); type: functional; parameters: scale not given: the % may be the effect or the level left
MDA-MB-231 [18] = assay: Synergistic antiproliferative activity against human MDA-MB-231 cells assessed as combination index at 12.5 uM in presence of 0.1 uM doxorubicin by MTT assay; type: functional
HCT-116 [19] = assay: Induction of apoptosis in human HCT-116 cells assessed as late apoptotic cells at 1 uM incubated for 24 hrs by AnnexinV-FITC/PI staining based flow cytometry (reference value: 3.07%); type: functional
MCF7 [20] = assay: Synergistic antiproliferative activity against human MCF7 cells assessed as combination index at 0.1 uM in presence of 0.1 uM doxorubicin by MTT assay; type: functional
[21] = Toxicity in BALB/c nude mouse xenografted with human HL-60 cells assessed as effect on body weight at 100 mg/kg, po qd for 16 days co-administered with doxorubicin; type: organism-based; conditions: in vivo, 384 h, time 16 day
HepG2 = assay: Synergistic antiproliferative activity against Doxorubicin-resistant human HepG2 cells assessed as combination index at 6.25 uM in presence of 0.1 uM doxorubicin by MTT assay; type: functional
[22] = Half life in human liver microsomes; type: ADME, Microsome
MDA-MB-231 [23] = assay: Synergistic antiproliferative activity against human MDA-MB-231 cells assessed as combination index at 6.25 uM in presence of 0.1 uM doxorubicin by MTT assay; type: functional
[24] = Toxicity in BALB/c nude mouse xenografted with human HL-60 cells assessed as serum lymphocytes content at 100 mg/kg, po qd for 16 days (reference value: 75.3%); type: organism-based; conditions: in vivo, 384 h, time 16 day

With `Cc1cc2ncnn2cc1Nc1ncc2c(n1)N(C1CCOCC1)CC(=O)N2C` the viability at 1 µM (HCT-116 [1]) was 92.5%, the Activity (MDA-MB-231 [2]) was “Active” and the CI (MCF7 [3]) was 0.06841. For the same compound, the Activity (HCT-116 [4]) was 3.46%, the Activity [5] was 10.315 10^12/L and the CI (HL-60 [6]) was 0.00616. The IC50 (HCT-116 [7]) was 17.1 µM, the Activity [8] was “Non-Toxic” and the CI (HL-60 [9]) was 0.00341. For the same compound, the IC50 [10] was 0.758 µM, the Activity (HCT-116 [11]) was “Active” and the IC50 (HCT-116 [12]) was 24.1 µM. The fraction unbound [13] was 0.859, the CI (MCF7 [14]) was 0.06966 and the Activity [15] was “Non-Toxic”. The CI (MDA-MB-231 [16]) was 0.705, the Activity (HCT-116 [17]) was 3.55% and the CI (MDA-MB-231 [18]) was 0.474. For the same compound, the Activity (HCT-116 [19]) was 4.05%, the CI (MCF7 [20]) was 0.2844 and the Activity [21] was “Non-Toxic”. For the same compound, the CI (HepG2) was 0.0268, the half-life [22] was > 2.42 h and the CI (MDA-MB-231 [23]) was 0.3693. For the same compound, the Activity [24] was 77.25%.
